Measurements as given in article PMC10035947, “Development of novel anilinoquinazoline-based carboxylic acids as non-classical carbonic anhydrase IX and XII inhibitors” (Journal of Enzyme Inhibition and Medicinal Chemistry, 2023).
Like-named read-outs stand apart in the source and are kept apart here.

What was measured:
Test in all cases: NCI SRB assay
[1] = tested on: SR; type: cell-based, human; settings: for GI%: 10 μM; for Growth Percent: 1.00E-5 Molar
[2] = tested on: A549/ATCC; type: cell-based, human; settings: for GI%: 10 μM; for Growth Percent: 1.00E-5 Molar
[3] = tested on: EKVX; type: cell-based, human; settings: for GI%: 10 μM; for Growth Percent: 1.00E-5 Molar; for GI50 / LC50 (concentration killing 50% of cells) / TGI: 5-dose
[4] = tested on: NCI-H460; type: cell-based, human; settings: for GI%: NCI-H460, 10 μM; for Growth Percent: NCI-H460, 1.00E-5 Molar
[5] = tested on: HCT-15; type: cell-based, human; settings: for GI%: HCT-15, 10 μM; for Growth Percent: HCT-15, 1.00E-5 Molar
[6] = tested on: HT29; type: cell-based, human; settings: for GI%: HT29, 10 μM; for Growth Percent: HT29, 1.00E-5 Molar
[7] = tested on: LOX IMVI; type: cell-based, human; settings: for GI%: 10 μM; for Growth Percent: 1.00E-5 Molar
[8] = tested on: SK-MEL-2; type: cell-based, human; settings: for GI%: SK-MEL-2, 10 μM; for Growth Percent: SK-MEL-2, 1.00E-5 Molar
[9] = tested on: SK-OV-3; type: cell-based, human; settings: for GI%: SK-OV-3, 10 μM; for Growth Percent: SK-OV-3, 1.00E-5 Molar; for CC50: read-out: LC50 (the source's name)
[10] = tested on: UO-31; type: cell-based, human; settings: for GI%: UO-31, 10 μM; for Growth Percent: UO-31, 1.00E-5 Molar; for CC50: read-out: LC50 (the source's name)
[11] = tested on: MDA-MB-231; type: cell-based; settings: for GI%: MDA-MB-231, 10 μM; for Growth Percent: 1.00E-5 Molar; for CC50: read-out: LC50 (the source's name)
[12] = tested on: RXF 393; type: cell-based, human; settings: for CC50: read-out: LC50 (the source's name)
[13] = Homo sapiens, HCT-15, HCT-15, 5-dose
[14] = Homo sapiens, HT-29, HT29, 5-dose
[15] = Homo sapiens, UO-31, UO-31, 5-dose

Cc1cccc(-c2nc(Nc3ccccc3C(=O)O)c3ccccc3n2)c1 [6a, 2-((2-(m-Tolyl)quinazolin-4-yl)amino)benzoic acid]
GI% [1]: 77% | Growth Percent [1]: 23.03% | GI% ([2]; A549/ATCC): 56% | Growth Percent ([2]; A549/ATCC): 43.63% | GI% [3]: 79% | Growth Percent [3]: 20.98% | GI% [4]: 81% | Growth Percent [4]: 19.15% | GI% [5]: 86% | Growth Percent [5]: 14.29% | GI% [6]: 60% | Growth Percent [6]: 39.66% | GI% [7]: 64% | Growth Percent [7]: 36.42% | GI% [8]: 34% | Growth Percent [8]: 66.01% | GI% [9]: 24% | Growth Percent [9]: 76.74% | GI% [10]: 69% | Growth Percent [10]: 31.01% | GI% [11]: 34% | Growth Percent ([11]; MDA-MB-231/ATCC): 66.08%

Cc1ccc(-c2nc(Nc3ccccc3C(=O)O)c3ccccc3n2)cc1 [6b, 2-((2-(p-Tolyl)quinazolin-4-yl)amino)benzoic acid]
GI% [1]: 81% | Growth Percent [1]: 18.56% | LC50 (50% lethal concentration) ([1]; 5-dose): < 100 µM | TGI ([1]; 5-dose): <100 µM | TGI ([1]; 5-dose, listed as D - 835857): > 1.00E-4 Molar | GI50 ([1]; Homo sapiens, 5-dose): 10.3 µM | LC50 (50% lethal concentration) ([1]; Homo sapiens, 5-dose): > 100 µM | GI% ([2]; A549/ATCC): 70% | Growth Percent ([2]; A549/ATCC): 30.48% | LC50 ([2]; A549/ATCC, 5-dose): < 100 µM | TGI ([2]; A549/ATCC, 5-dose): <100 µM | TGI ([2]; A549/ATCC, 5-dose, listed as D - 835857): > 1.00E-4 Molar | LC50 ([2]; Homo sapiens, A549, A549/ATCC, 5-dose): > 100 µM | GI50 ([2]; Homo sapiens, A549/ATCC, 5-dose): 8.31 µM | GI% [3]: 87% | Growth Percent [3]: 13.07% | GI50 [3]: 8.9 µM | LC50 (concentration killing 50% of cells) [3]: < 100 µM | TGI [3]: 56.2 µM | TGI ([3]; listed as D - 835857): 5.62E-5 Molar | GI50 ([3]; Homo sapiens): 8.89 µM | LC50 (concentration killing 50% of cells) ([3]; Homo sapiens): > 100 µM | GI50 ([4]; Homo sapiens, NCI-H460, NCI-H460, 5-dose): 8.52 µM | LC50 (concentration giving 50% net cell kill) ([4]; Homo sapiens, NCI-H460, 5-dose): 84 µM | GI% [4]: 109% | Growth Percent [4]: -9.44% | GI50 ([4]; NCI-H460, 5-dose): 8.5 µM | TGI ([4]; NCI-H460, 5-dose): 27.7 µM | TGI ([4]; NCI-H460, 5-dose, listed as D - 835857): 2.77E-5 Molar | GI% [5]: 95% | Growth Percent [5]: 4.66% | GI50 ([5]; HCT-15, 5-dose): 5.8 µM | LC50 ([5]; HCT-15, 5-dose): < 100 µM | TGI ([5]; HCT-15, 5-dose): 28.7 µM | TGI ([5]; HCT-15, 5-dose, listed as D - 835857): 2.87E-5 Molar | GI50 [5, 13]: 5.82 µM | LC50 [5, 13]: > 100 µM | GI% [6]: 82% | Growth Percent [6]: 17.79% | LC50 (50% lethal concentration) ([6]; HT29, 5-dose): < 100 µM | TGI ([6]; HT29, 5-dose): <100 µM | TGI ([6]; HT29, 5-dose, listed as D - 835857): > 1.00E-4 Molar | GI50 [6, 14]: 17.9 µM | LC50 (50% lethal concentration) [6, 14]: > 100 µM | GI% [7]: 91% | Growth Percent [7]: 8.57% | TGI ([7]; 5-dose): 31.6 µM | TGI ([7]; 5-dose, listed as D - 835857): 3.16E-5 Molar | GI50 ([7]; Homo sapiens, 5-dose): 10.2 µM | CC50 ([7]; Homo sapiens, 5-dose, read-out: LC50 (the source's name)): 97.7 µM | GI50 ([8]; Homo sapiens, SK-MEL-2, SK-MEL-2, 5-dose): 3.65 µM | CC50 ([8]; Homo sapiens, SK-MEL-2, 5-dose, read-out: LC50 (the source's name)): 83.5 µM | GI% [8]: 94% | Growth Percent [8]: 5.75% | GI50 ([8]; SK-MEL-2, 5-dose): 3.7 µM | TGI ([8]; SK-MEL-2, 5-dose): 15.6 µM | TGI ([8]; SK-MEL-2, 5-dose, listed as D - 835857): 1.56E-5 Molar | CC50 ([9]; Homo sapiens, SK-OV-3, SK-OV-3, 5-dose): > 100 µM | GI50 ([9]; Homo sapiens, SK-OV-3, 5-dose): 11.9 µM | GI% [9]: 69% | Growth Percent [9]: 31.32% | TGI ([9]; SK-OV-3, 5-dose): 55.3 µM | TGI ([9]; SK-OV-3, 5-dose, listed as D - 835857): 5.53E-5 Molar | CC50 ([9]; SK-OV-3, 5-dose): < 100 µM | GI50 [10, 15]: 7.33 µM | CC50 [10, 15]: > 100 µM | GI% [10]: 87% | Growth Percent [10]: 12.56% | GI50 ([10]; UO-31, 5-dose): 7.3 µM | TGI ([10]; UO-31, 5-dose): 77.9 µM | TGI ([10]; UO-31, 5-dose, listed as D - 835857): 7.79E-5 Molar | CC50 ([10]; UO-31, 5-dose): < 100 µM | GI50 ([11]; Homo sapiens, MDA-MB-231): 17.2 µM | CC50 ([11]; Homo sapiens, MDA-MB-231, MDA-MB-231, 5-dose): < 100 µM | CC50 ([11]; Homo sapiens, MDA-MB-231, MDA-MB-231/ATCC, 5-dose): > 100 µM | GI% [11]: 65% | TGI ([11]; MDA-MB-231, 5-dose): 59.7 µM | Growth Percent ([11]; MDA-MB-231/ATCC): 35.40% | TGI ([11]; MDA-MB-231/ATCC, 5-dose): 5.97E-5 Molar | CC50 ([12]; Homo sapiens, RXF 393, RXF 393, 5-dose): > 100 µM | GI50 ([12]; Homo sapiens, RXF 393, 5-dose): 13.1 µM | TGI ([12]; RXF 393, 5-dose): 65.9 µM | TGI ([12]; RXF 393, 5-dose, listed as D - 835857): 6.59E-5 Molar | CC50 ([12]; RXF 393, 5-dose): < 100 µM

COc1ccc(-c2nc(Nc3ccccc3C(=O)O)c3ccccc3n2)cc1 [6c, 2-((2–(4-Methoxyphenyl)quinazolin-4-yl)amino)benzoic acid]
GI% ([2]; A549/ATCC): 60% | Growth Percent ([2]; A549/ATCC): 39.61% | GI% [3]: 66% | Growth Percent [3]: 33.92% | GI% [4]: 89% | Growth Percent [4]: 11.57% | GI% [5]: 61% | Growth Percent [5]: 39.33% | GI% [6]: 37% | Growth Percent [6]: 63.13% | GI% [7]: 50% | Growth Percent [7]: 49.53% | GI% [8]: 57% | Growth Percent [8]: 43.49% | GI% [9]: 53% | Growth Percent [9]: 47.19% | Growth Percent ([12]; RXF 393, 1.00E-5 Molar): 68.31%

Cc1ccc(-c2nc(Nc3cccc(C(=O)O)c3)c3ccccc3n2)cc1 [7b, 3-((2-(p-Tolyl)quinazolin-4-yl)amino)benzoic acid]
GI% [1]: 41% | Growth Percent [1]: 58.68% | GI% ([2]; A549/ATCC): – (Only GI% higher than 20% are shown) | Growth Percent ([2]; A549/ATCC): 90.82% | GI% [3]: 41% | Growth Percent [3]: 58.70% | GI% [4]: – (Only GI% higher than 20% are shown) | Growth Percent [4]: 97.53% | GI% [5]: 55% | Growth Percent [5]: 45.38% | GI% [6]: – (Only GI% higher than 20% are shown) | Growth Percent [6]: 105.90% | GI% [7]: – (Only GI% higher than 20% are shown) | Growth Percent [7]: 81.15% | GI% [8]: – (Only GI% higher than 20% are shown) | Growth Percent [8]: 112.04% | GI% [9]: – (Only GI% higher than 20% are shown) | Growth Percent [9]: 89.56% | GI% [10]: 51% | Growth Percent [10]: 48.97% | Growth Percent ([11]; MDA-MB-231/ATCC): 95.55%

Cc1cccc(-c2nc(Nc3ccc(C(=O)O)cc3)c3ccccc3n2)c1 [8a, 4-((2-(m-Tolyl)quinazolin-4-yl)amino)benzoic acid]
GI% [1]: 32% | Growth Percent [1]: 67.75% | GI% ([2]; A549/ATCC): 22% | Growth Percent ([2]; A549/ATCC): 78.30% | GI% [3]: – (Only GI% higher than 20% are shown) | Growth Percent [3]: 82.93% | GI% [4]: 22% | Growth Percent [4]: 78.01% | GI% [5]: 29% | Growth Percent [5]: 70.54% | GI% [6]: – (Only GI% higher than 20% are shown) | Growth Percent [6]: 91.72% | GI% [7]: 29% | Growth Percent [7]: 71.49% | GI% [8]: – (Only GI% higher than 20% are shown) | Growth Percent [8]: 123.11% | GI% [9]: – (Only GI% higher than 20% are shown) | Growth Percent [9]: 108.70% | GI% [10]: 54% | Growth Percent [10]: 45.85% | Growth Percent ([11]; MDA-MB-231/ATCC): 93.31%

Cc1ccc(-c2nc(Nc3ccc(C(=O)O)cc3)c3ccccc3n2)cc1 [8b, 4-((2-(p-Tolyl)quinazolin-4-yl)amino)benzoic acid]
GI% [1]: 38% | Growth Percent [1]: 61.50% | GI% ([2]; A549/ATCC): – (Only GI% higher than 20% are shown) | Growth Percent ([2]; A549/ATCC): 95.03% | GI% [3]: 28% | Growth Percent [3]: 72.41% | GI% [4]: – (Only GI% higher than 20% are shown) | Growth Percent [4]: 82.06% | GI% [5]: 49% | Growth Percent [5]: 50.85% | GI% [6]: – (Only GI% higher than 20% are shown) | Growth Percent [6]: 87.37% | GI% [7]: 43% | Growth Percent [7]: 57.05% | GI% [8]: – (Only GI% higher than 20% are shown) | Growth Percent [8]: 113.45% | GI% [9]: – (Only GI% higher than 20% are shown) | Growth Percent [9]: 99.63% | GI% [10]: 58% | Growth Percent [10]: 41.73% | Growth Percent ([11]; MDA-MB-231/ATCC): 87.83%
